Assay results as given in patent US6890951B2, “Treatment of addiction and addiction-related behavior” (Brookhaven Science Associates LLC, priority 1998, dated 2005).
Like-named read-outs stand apart in the source and are kept apart here.

Legend:
[1] = molecular target: T1, GABAB receptors (Rattus norvegicus, UniProt Q9Z0U4); settings: 2-hydroxysaclofen; cited from earlier work
T1 construct: microinjection of baclofen (0.1-1 nmol) into the ventral tegmental area; host or cells: ventral tegmental area of living animals (endogenous receptor)

[2] = tested on: extracellular DA in the NACC; test: Microdialysis: ethanol-induced increases in NACC DA; format: in vivo, rats; settings: ethanol 1.0 g/kg i.p., approximately 125 minutes following administration
Method: Ethanol at a dose of 1.0 g/kg i.p. was administered to the animals.

[3] = tested on: synaptic DA (11C-raclopride binding, striatum); test: Primate PET: 11C-raclopride mean DV ratio, GVG and nicotine; format: in vivo, baboons (Papio anubis)
Method: Adult female baboons (n=16) (Papio anubis, 13-18 kg) were used for all imaging studies and carbon-11 labeled raclopride (^11C-raclopride). […] Control animals (Group 1) received two injections of ^11C-raclopride without any drug intervention in order to determine the test/retest variability of the measurement. […] Arterial blood samples were obtained throughout the study and selected plasma samples were analyzed for the presence of unchanged ^11C-raclopride. Animals were not removed from the gantry between isotope injections.
Each primate (n=16) received two ^11C-raclopride injections. […] Test/retest primates (n=7, Group 1, Table XVI) received placebo (0.9% saline, 1 ml/kg) 30 mins prior to the second radiotracer injection in order to determine the test/retest variability of the method.

[4] = tested on: mesolimbic extracellular dopamine (DA), NAcc; test: Microdialysis Example 15: extracellular dopamine after nicotine; format: in vivo; settings: nicotine 0.4 mg/kg s.c., saline pretreated animals
Method: (§1) Briefly, two days prior to the microdialysis experiments, siliconized guide cannulae were implanted targeting the NAcc (A=+1.5 mm, L=−1.0 mm, V=−5.6 mm). […] Dialysate samples were assayed for monoamine content by microbore high-pressure liquid chromatography (HPLC) coupled with electrochemical detection. […] Peak effects were analyzed with a one-way ANOVA, and post-hoc Bonferroni t-test of topiramate pretreated groups compared to saline pretreated controls provided ANOVA significance at a critical value of 0.05.

[5] = tested on: norepinephrine (NE); test: Microdialysis Example 15: extracellular norepinephrine after nicotine; format: in vivo; settings: nicotine 0.4 mg/kg s.c., saline pretreated animals
Method: as §1

[6] = tested on: extracellular DA levels in the NACC; settings: cited from earlier work
[7] = tested on: serotonin (5-HT); test: Microdialysis Example 15: extracellular serotonin after nicotine; format: in vivo; settings: nicotine 0.4 mg/kg s.c., saline pretreated animals
Method: as §1

[8] = tested on: extracellular DA in the NACC; test: In vivo microdialysis: nicotine-induced increases in extracellular NACC DA; parameters: species or system rats
Description: All animals were used under an IACUC-approved protocol and with strict adherence to the NIH guidelines. Adult male Sprague-Dawley rats (200-300 g, Taconic Farms), housed in the animals care facility under 12:12 light/dark conditions, were placed into 6 groups (n=5-9), anesthetized and siliconized guide cannulae were stereotactically implanted into the right NACC (2.0 mm anterior and 1.0 mm lateral to bregms, and 7.0 mm ventral to the cortical surface) at least 4 days prior to study. […] Animals were placed in bowls, and probes were inserted and flushed with ACSF overnight. On the day of the study, a minimum of three samples were injected to determine baseline stability. Samples were collected for 20 min. and injected on-line (CMA/160, BAS). The average Dopamine concentration of these three stable samples was defined as control (100%), and all subsequent treatment values were transformed to a percentage of that control. […] The high performance liquid chromatography (HPLC) system consists of a BAS reverse-phase column (3.0 μC-18), a BAS LC-4C electrochemical transducer with a dual/glassy carbon electrode set at 650 mV, a computer that analyzes data on-line using a commercial software package (Chromograph Bioanalytical Systems), and a dual pen chart recorder. The mobile phase (flow rate 1.0 ml/min) consisted of 7.0% methanol, 50 mM sodium phosphate monobasic, 1.0 mM sodium octyl sulfate, and 0.1 mm EDNA, pH 4.0. […] Upon completion of the study, animals were decapitated and frozen sections were obtained for probe placement verification.
The open circles are control animals.
In all studies, animals were placed in the microdialysis bowls the night before the experiment and artificial cerebrospinal fluid (ACSF) was perfused through the microdialysis probes at a flow rate of 2.0 μl/min. At the end of each study, animals were sacrificed and their brains were removed and sectioned for probe placement verification.

[9] = tested on: Sprague-Dawley rats; test: Gross locomotor activity during microdialysis (infrared motion sensor); settings: nicotine, regardless of the dose of GVG
Description: In parallel to the quantitative estimates of dopamine concentration, the locomotor response of these animals to stimulant administration was simultaneously quantified using an infrared motion sensor. This infrared optical proximity detector monitored movement of the gimbaled arm, an integral component of the freely moving system. The digital output of the detector was interfaced with an IBM personal computer and programmed to count both positive and negative arm deflections. […] Locomotor activity was then expressed as the number of deflections per sample interval.

[10] = tested on: rats; test: Nicotine-induced conditioned place preference; format: in vivo
Description: A total of 8 rats were examined for each treatment pairing. Animals received 4 pairings over an 8 day period, one pairing per day. […] The protocol on days 1 and 2 was repeated 3 additional times.
The CPP apparatus was made entirely of plexiglass, except for the floor in one of the pairing chambers, which was made of a stainless steel plate with holes (0.5 mm in diameter) spaced 0.5 mm from edge to edge. The two pairing chambers differed in visual and tactile cues. One chamber was entirely light blue with the stainless steel floor and the second chamber was light blue with horizontal black stripes (2.5 cm wide) spaced 3.8 cm apart with a smooth plexiglass floor.
The conditioning procedure consisted of 20 sessions carried out consecutively over 20 days. The first three sessions were habituation sessions, during which the animals were handled for 5 minutes per day and exposed to the sights and sounds of the test room. […] The amount of time spent in each chamber was recorded using an automated infrared beam electronically coupled to a timer.
The animals were habituated as described above. […] Subsequently, the animals were then placed into the appropriate chamber for 30 minutes. This was repeated for 8 pairings over a 16 day period. On the test day, animals were placed in the CPP apparatus and allowed free access to the all of the CPP chambers and the amount of time spent in chamber was recorded.

[11] = tested on: extracellular DA levels in the NACC; settings: SCH 50911 alone; cited from earlier work
[12] = tested on: GABAA receptor complex; settings: in vivo; cited from earlier work
[13] = tested on: male Wistar rats; settings: baclofen; cited from earlier work
[14] = tested on: rats; settings: microinjection of baclofen into the ventral tegmental area; cited from earlier work
[15] = tested on: rats; settings: baclofen 1.25-5 mg/kg i.p. acute pretreatment; for at least four hours; cited from earlier work
[16] = tested on: cocaine abuser; settings: case report; cited from earlier work
[17] = tested on: NAc DA; test: Microdialysis: cocaine/heroin (speedball) induced increases in NAc DA; format: in vivo, rats
Method: In vivo microdialysis studies were performed using adult male Sprague-Dawley rats (Taconic Farms) as detailed previously (Morgan and Dewey, 1998). Cocaine, a dopamine reuptake inhibitor, (n=6-8) was administered (i.p.) at a dose of 20 mg/kg while heroin, an indirect dopamine releaser, (n=6-8) was administered (i.p.) at a dose of 0.5 mg/kg. In studies designed to investigate the synergistic effects of a cocaine/heroin combination (n=6-8), both drugs were administered at the identical dose used in the single drug studies. Alone cocaine produced a marked elevation in extracellular DA of approximately 380% above baseline values, 60 minutes following administration. DA returned to baseline within 120 minutes. In contrast, heroin increased NAc DA by only 70%, 60 minutes following administration, returning to baseline within 140 minutes. However, when combined, the two drugs produced an increase in NAc DA of approximately 1000%, 180 minutes following administration that had not returned to baseline values by 200 minutes after reaching peak values (FIG. 9).

[18] = tested on: extracellular DA in the NACC; test: Microdialysis: methamphetamine-induced increases in NACC DA; format: in vivo, rats
Description: All animals were used under an IACUC-approved protocol and with strict adherence to the NIH guidelines. Adult male Sprague-Dawley rats (200-300 g, Taconic Farms), housed in the animals care facility under 12:12 light/dark conditions, were placed into 6 groups (n=5-9), anesthetized and siliconized guide cannulae were stereotactically implanted into the right NACC (2.0 mm anterior and 1.0 mm lateral to bregms, and 7.0 mm ventral to the cortical surface) at least 4 days prior to study. Microdialysis probes (2.0 mm, Bioanalytical Systems, BAS, West Lafayette, Ind.) were positioned within the guide cannulae and artificial cerebrospinal fluid (ACSF, 155.0 mM NA^−, 1.1 mM Ca^2−, 2.9 mM K^−, 132.76 mM Cl^−, and 0.83 mM Mg^2−) was administered through the probe using a CMA/100 microinfusion pump (BAS) at a flow rate of 2.0 μl/min. Animals were placed in bowls, and probes were inserted and flushed with ACSF overnight. On the day of the study, a minimum of three samples were injected to determine baseline stability. Samples were collected for 20 min. and injected on-line (CMA/160, BAS). The average Dopamine concentration of these three stable samples was defined as control (100%), and all subsequent treatment values were transformed to a percentage of that control. […] The high performance liquid chromatography (HPLC) system consists of a BAS reverse-phase column (3.0 μC-18), a BAS LC-4C electrochemical transducer with a dual/glassy carbon electrode set at 650 mV, a computer that analyzes data on-line using a commercial software package (Chromograph Bioanalytical Systems), and a dual pen chart recorder. The mobile phase (flow rate 1.0 ml/min) consisted of 7.0% methanol, 50 mM sodium phosphate monobasic, 1.0 mM sodium octyl sulfate, and 0.1 mm […], pH 4.0. DA eluted at 7.5 min. Upon completion of the study, animals were decapitated and frozen sections were obtained for probe placement verification.
Methamphetamine at a dose of 1.25 mg/kg i.p. and 2.5 mg/kg i.p. was administered to the animals. It was noted that methamphetamine elevated extracellular DA concentrations in the NACC by approximately 2500% over basal levels, 100 minutes following administration of 2.5 mg/kg and approximately 1500% over basal levels following administration of 1.25 mg/kg (FIG. 6). DA returned to basal levels approximately 200 minutes following administration.

[19] = tested on: rat; settings: cited from earlier work
[20] = Nicotine 0.4 mg/kg s.c./Vehicle, 4 pairings (Table XII)
[21] = acquisition, Saline/Nicotine 0.4 mg/kg s.c., 8 pairings (Table XV)
[22] = expression, Saline/Nicotine (0.4 mg/kg s.c.) 8 pairings, saline on test day
[23] = expression, Saline/Nicotine (0.4 mg/kg s.c.) 8 pairings, saline on test day, listed as nicotine

T1 sequence (Q9Z0U4 17-960 limits assumed): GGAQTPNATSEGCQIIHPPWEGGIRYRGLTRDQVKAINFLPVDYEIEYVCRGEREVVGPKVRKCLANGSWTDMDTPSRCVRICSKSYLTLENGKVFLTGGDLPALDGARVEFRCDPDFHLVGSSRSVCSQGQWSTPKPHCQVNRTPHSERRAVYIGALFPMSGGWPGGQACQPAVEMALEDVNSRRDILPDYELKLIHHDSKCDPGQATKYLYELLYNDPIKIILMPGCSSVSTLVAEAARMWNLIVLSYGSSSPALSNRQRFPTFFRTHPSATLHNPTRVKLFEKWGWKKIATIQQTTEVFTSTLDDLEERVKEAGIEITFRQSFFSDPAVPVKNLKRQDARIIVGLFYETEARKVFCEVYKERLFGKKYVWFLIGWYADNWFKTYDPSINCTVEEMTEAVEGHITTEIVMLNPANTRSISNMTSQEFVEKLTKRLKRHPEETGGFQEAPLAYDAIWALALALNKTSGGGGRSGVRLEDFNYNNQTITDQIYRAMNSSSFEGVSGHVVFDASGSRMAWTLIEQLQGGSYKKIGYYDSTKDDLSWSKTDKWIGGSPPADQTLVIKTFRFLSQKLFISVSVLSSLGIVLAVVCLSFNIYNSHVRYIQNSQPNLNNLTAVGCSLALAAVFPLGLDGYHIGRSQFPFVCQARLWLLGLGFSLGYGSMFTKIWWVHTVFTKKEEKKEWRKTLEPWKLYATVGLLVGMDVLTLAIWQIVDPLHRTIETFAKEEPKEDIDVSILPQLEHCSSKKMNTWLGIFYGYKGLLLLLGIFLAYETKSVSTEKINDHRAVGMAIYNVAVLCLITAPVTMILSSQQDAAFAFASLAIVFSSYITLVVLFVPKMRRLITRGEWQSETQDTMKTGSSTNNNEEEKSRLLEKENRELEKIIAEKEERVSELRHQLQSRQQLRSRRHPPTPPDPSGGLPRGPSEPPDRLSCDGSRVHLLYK
T1 sequence (O88871 41-940 partner): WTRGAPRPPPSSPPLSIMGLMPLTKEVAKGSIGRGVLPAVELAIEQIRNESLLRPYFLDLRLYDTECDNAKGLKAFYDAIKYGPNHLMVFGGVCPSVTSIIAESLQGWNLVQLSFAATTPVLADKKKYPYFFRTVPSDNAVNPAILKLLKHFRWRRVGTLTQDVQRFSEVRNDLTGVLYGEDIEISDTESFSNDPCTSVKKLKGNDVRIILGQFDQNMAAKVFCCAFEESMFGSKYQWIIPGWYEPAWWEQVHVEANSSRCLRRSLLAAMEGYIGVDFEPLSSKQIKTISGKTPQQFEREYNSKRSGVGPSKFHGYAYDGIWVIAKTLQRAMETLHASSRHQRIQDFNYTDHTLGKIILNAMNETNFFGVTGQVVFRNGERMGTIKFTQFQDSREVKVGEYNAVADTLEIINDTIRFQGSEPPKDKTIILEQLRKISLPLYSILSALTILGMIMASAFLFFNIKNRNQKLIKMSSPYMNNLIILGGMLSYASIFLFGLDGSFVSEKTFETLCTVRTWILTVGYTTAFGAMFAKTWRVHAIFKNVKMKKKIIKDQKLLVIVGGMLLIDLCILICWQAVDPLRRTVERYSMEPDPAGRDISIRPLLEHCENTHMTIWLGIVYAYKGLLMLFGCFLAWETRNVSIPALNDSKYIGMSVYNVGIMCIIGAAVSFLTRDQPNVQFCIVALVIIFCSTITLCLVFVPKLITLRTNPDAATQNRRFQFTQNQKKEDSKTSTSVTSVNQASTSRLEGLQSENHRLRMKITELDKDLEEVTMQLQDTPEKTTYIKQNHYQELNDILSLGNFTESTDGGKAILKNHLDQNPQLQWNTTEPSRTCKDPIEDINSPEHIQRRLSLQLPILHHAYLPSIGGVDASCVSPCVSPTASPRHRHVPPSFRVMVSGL

NCC(O)(CS(=O)(=O)O)c1ccc(Cl)cc1 (centres unmarked) [2-hydroxysaclofen]
effect of baclofen on morphine CPP [1]: antagonized

CCO [Ethanol]
elevation of extracellular DA concentrations in the NACC over basal levels [2]: approximately 200%

CN1CCC[C@H]1c1cccnc1 [Nicotine]
reduction of the mean DV ratio ([3]; Group 3: nicotine alone): 12%
% Change in Mean DV Ratio ([3]; Group 3: nicotine alone 0.3 mg total, 30 minutes prior to second 11C-raclopride injection): −12.3 ± 2.6%
DA increase [4]: 70±10.5%
NE increase [5]: 176±26%
increase in extracellular DA levels in the NACC ([6]; nicotine 0.6 mg/kg s.c.): 220%
increase in extracellular DA levels in the NACC ([6]; nicotine 0.8 mg/kg s.c.): 179%
5-HT increase [7]: 116±11.2%
increase of NACC DA levels (rank order) ([8]; nicotine): 90%
time for DA to return to basal levels ([8]; nicotine 0.4 mg/kg s.c., Group 1): approximately 160 minutes
DA levels, % of basal levels ([8]; nicotine 0.4 mg/kg s.c., Group 1 (naive)): approximately 200%
increase in extracellular DA concentrations in the NACC ([8]; nicotine 0.4 mg/kg s.c., Group 1 (naive), 80 minutes following administration): approximately 100%
gross locomotor activity [9]: increased gross locomotor activity
Time spent in chambers, Paired [10, 20]: 9.4 ± 0.5 min
Time spent in chambers, Unpaired [10, 20]: 5.6 ± 0.5 min
Time spent in chambers, Paired [10, 21]: 9.6 ± 0.6^1 min
Time spent in chambers, Unpaired [10, 21]: 5.4 ± 0.6 min
Time spent in chambers, Paired [10, 22]: 9.6 ± 0.6 min
Time spent in chambers, Unpaired [10, 22]: 5.4 ± 0.6 min
Time spent in chambers, Paired [10, 23]: 9.6 ± 0.6 min
Time spent in chambers, Unpaired [10, 23]: 5.4 ± 0.6 min

CC1(C)CO[C@@H](CC(=O)O)CN1 [SCH 50911]
DA levels when given alone [11]: does not significantly alter DA levels

Cc1nnc2n1-c1ccc(Cl)cc1C(c1ccccc1)=NC2 [alprazolam]
rate of cocaine self-administration [12]: decreased the rate of cocaine self-administration

NCC(CC(=O)O)c1ccc(Cl)cc1 (centres unmarked) [baclofen]
break points for intravenous administration of cocaine [13]: dose-dependent decrease
rate of drug intake [13]: did not affect the rate of drug intake
rate-current intensity curve of lateral hypothalamus stimulation [14]: rightward shift of the rate-current intensity curve
self-administration of cocaine [15]: suppress self-administration of cocaine

NCC1(CC(=O)O)CCCCC1 [gabapentin]
cocaine withdrawal and craving [16]: attenuated cocaine withdrawal and craving

CC(=O)Oc1ccc2c3c1O[C@H]1[C@@H](OC(C)=O)C=C[C@H]4[C@@H](C2)N(C)CC[C@@]341 [heroin]
time for DA to return to baseline ([17]; cocaine 20 mg/kg i.p. or heroin 0.5 mg/kg i.p. alone): ≤ 140 min
increase in NAc DA ([17]; heroin alone 0.5 mg/kg i.p., 60 minutes following administration): 70%

CN[C@@H](C)Cc1ccccc1 [methamphetamine]
time for DA to return to basal levels ([18]; methamphetamine): approximately 200 minutes
elevation of extracellular DA concentrations in the NACC over basal levels ([18]; methamphetamine 1.25 mg/kg i.p.): approximately 1500%

NC(=O)CCC/N=C(\c1ccc(Cl)cc1)c1cc(F)ccc1O [progabide]
conditioned place preference or aversion, alone ([19]; progabide alone): does not produce conditioned place preference or aversion
CPP response to […] i.p. of amphetamine ([19]; progabide pretreatment, present for 35 minutes): did not alter the CPP response
